Consider nine compounds from patent US11771685B2, “Compounds for the treatment of neurological or mitochondrial diseases” (MUSC FOUNDATION FOR RESEARCH DEVELOPMENT, priority 2018, dated 2023).

Each structure is given as a SMILES string.

Data set [1] has as its system Zebrafish larvae. As to the kind of experiment: In vivo toxicology in zebrafish larvae. The following applies: for concentration lethal/toxic at 24 hr / overt toxicity observation: 7 dpf larvae; for overt toxicity observation: 5-20 μM, observed 1, 5 and 24 hr. As for the experimental part: Zebrafish larvae, 7 days post-fertilization (dpf), were exposed to compounds at 20, 15, 10, and 5 μM, six larvae per compound. Animals were observed 1, 5, and 24 hr after dosing for overt toxicity (altered survival, morbidity, morphological deformity). Heart rate, behavior, and startle response were monitored at each time point.
Zebrafish (AB strain) were obtained from the Zebrafish International Resource Center (supported by P40 RR012546 from NIH—NCRR). Zebrafish were maintained and crossed according to standard methods (Westerfield, 2000). Fertilized eggs were collected and placed in E3 embryo medium and positioned in an incubator set at 28.5° C. with a 14/10-hr light/dark cycle (Kimmel et al., 1995). To determine the lethal dose of each compound, 96-well plates containing one zebrafish (7 days post-fertilization, dpf) per well in 100 μL of tank water were used. 100 μL of each compound (0.5-15 μM) was added to each well for 12 animals (one row) for a final volume of 200 μL. One row of larvae was used as dimethyl sulfoxide (DMSO)-only controls. […] All zebrafish studies were approved by the Medical University of South Carolina Institutional Animal Care and Use Committee (#180278) and performed in accordance with the guidelines.
Using a 96-well plate, 7 dpf zebrafish were placed one per well with 100 μL of tank water. 100 μL of each compound was then added to each well for 12 animals (one row) for a final volume of 200 μL. One row of zebrafish larvae was used as DMSO only controls.

Data set [2] deals with HT22 cells. As to the kind of experiment: HT22 oxytosis (glutamate-induced cell death) neuroprotection assay. The data set is classed as cell-based, mouse. Conditions: 10 mM Glu; for EC50: Mus musculus. As to the method:
The HT22 murine hippocampal cell system was chosen as an initial phenotypic screen for neuroprotective efficacy (Andreux et al., 2013; Andreux et al., 2014; Ohlow et al., 2017; Schubert and Maher, 2012). HT22 cells exposed to high extracellular Glu ([…]) undergo oxytosis, a non-apoptotic programmed cell death involving glutathione (GSH) depletion followed by ROS accumulation, oxidative damage, and a cytotoxic signaling cascade (Tan et al., 2001). Glu blocks the −xC cystine antiporter, causing (Tan et al., 2001) cells to accumulate severe oxidative stress, mitochondrial depolarization, disrupted mitochondrial morphology, and Ca^2+ influx (Tan et al., 2001; Yang et al., 2011; Cheng et al., 2013—cellular events that may occur in neurological diseases, including epilepsy. Thus, the immortalized HT22 cell line is a well-established model of neuronal oxidative stress (Sagara and Schubert, 1998; Matsumoto et al., 1996; Albrecht et al., 2010; Ha and Park, 2006; van Leyen et al., 2005; Tobaben et al., 2011), and a verified model of neurodegeneration to screen for potential neuroprotective drugs (Albrecht et al., 2010; van Leyen et al., 2008; Lewerenz et al., 2009; Lewerenz et al., 2003).
Consistent with that work, most of the 2-amino compounds achieved protection of HT22 cells against glutamate-induced oxytosis in the nM to μM range. […] Neuroprotection based on relative cell viability compared to +Glu and −Glu control cells was measured.
The HT22 neuronal cell line is a subclone of HT4, derived from the mouse hippocampus (Morimoto and Koshland, 1990). […] The HT22 cells used in this study were kindly provided by Dr. David Schubert (The Salk Institute for Biological Studies, La Jolla, CA, USA). The cells were grown in Dulbecco's Modified Eagle's Medium (DMEM/high glucose) supplemented with 10% fetal bovine serum (Hyclone) and 5 mL of antibiotic-antimycotic (Amphotericin B, Penicillin, and Streptomycin; Invitrogen) at 37° C. in 5% CO2.
HT-22 cells were seeded onto 96-well plates at 2.5×10^3 cells per well in 75 μL of medium and maintained at 37° C. in 5% CO2 overnight prior to the initiation of experimental treatments. For glutamate toxicity testing, cells were subsequently treated with 25 μL of medium containing glutamate (monosodium glutamate, Sigma, 1 M stock concentration in media, to achieve a final concentration of 10 mM) plus compound (stock in DMSO) and maintained at 37° C. in 5% CO2 for 24 hr. CellTiter-Blue® (resazurin cell viability assay reagent) was then added to each well at a final concentration of 0.125 mg/mL. The mixture was allowed to incubate for 2-4 hr until sufficient color change occurred. Cell viability was measured as a function of resorufin fluorescence intensity using a Tecan M200 Pro spectrophotometer, 560 nm/590 nm (excitation/emission). Cell viability was calculated as a percentage compared with untreated controls. EC50s were determined using GraphPad Prism's “log(inhibitor) vs. normalized response-Variable slope” function. Morphology of HT22 cells following treatments was determined by phase-contrast microscopy.
(§1) Statistical analyses were performed with GraphPad Prism 6 software. For the in vitro HT22 oxytosis assay, dose-response data were fit using GraphPad Prism's log(inhibitor) vs normalized response-variable slope parameters to determine EC50 values and 95% confidence intervals. For the zebrafish locomotive anti-seizure activity data, multiple comparisons were made using a one-way analysis of variance (ANOVA) with a Kruskal-Wallis Test, followed by the Dunn's Method to determine significant differences between all pairs or between control and experimental groups using the Dunn Method for Joint Ranking. Differences were considered statistically significant when p<0.05. Data from zebrafish experiments are represented as scatter dot plots of individual measurements, with means±standard deviation indicated by bars.

The test system of data set [3] is PTZ-induced seizure activity in zebrafish larvae. As to the kind of experiment: Zebrafish PTZ-induced seizure model. The data set is classed as in vivo. The following applies: Danio rerio; for minimal effective concentration: 7 dpf larvae, 1 hr pre-treatment, 10 mM PTZ, read-out: Anti-seizure activity: lowest tested dose with significant difference vs PTZ-only group. As for the experimental part:
The zebrafish PTZ-induced seizure model was used to determine the most promising compounds' in vivo efficacy. Zebrafish larvae (7 dpf) were treated with the compound for 1 hr prior to inducing seizures with PTZ. As established by previous larval zebrafish anti-seizure studies (Rahn et al., 2014; Hansen et al., 2004; Baraban et al., 2005), total distance traveled by each fish after seizure induction was measured and used as a proxy for seizure activity. Following collection of locomotor data, observation of a startle response and visual inspection for abnormal morphology confirmed that alterations in swim activity were not caused by compound toxicity.
We induced seizures in 7 dpf zebrafish larvae by the addition of […] PTZ as originally developed by Baraban et al., 2005. In a 48-well plate, one 7-dpf zebrafish was added per well. Larvae were dosed with each compound at a sub-lethal dose 1 hr prior to PTZ treatment. Two control rows were included with each experiment—tank water only control and PTZ only. Seizures were induced by adding PTZ to wells to yield a final concentration of 10 mM. After 5 min, the plate was transferred to the Daniovision instrument (Noldus Information Technology) and the chamber light was turned on. After 2 min, MediaRecorder (Noldus) was used to record video for 15 min. A small number of videos were acquired at 25 frames per second, but the majority of data were acquired at 60 frames per second. […] Ethovision XT software (Noldus) was used to track the fish movement from the video images in order to calculate the total distance traveled over 15 min. All experimental comparisons were made between animals from the same clutch.
as §1

The mark [4] stands for this setting: HT-22, 24 h, HT22 cells, 24 hr, 95% CI in parentheses.
Setting [5] is: read-out: reduction of PTZ-induced locomotor activity.

As for `C#CC(C)NC1=CC(=O)c2ccccc2C1=O` (racemic) [Compound 19, Rac-2-(but-3-yn-2-ylamino)naphthalene-1,4-dione], the fish dead entry in data set [1] (10 μM, 5 hr) is recorded as “⅙”. The same compound gave a toxic concentration in data set [1] (AB, zebrafish, in vivo, 5 hr) of at least 10 µM. Further, the concentration for a half-maximal effect (EC50) (usually the midpoint of the concentration-response curve) was 2140 nM in data set [2] (setting [4]) and about 1500 nM in data set [2] (HT-22, HT22 cells). In addition, in data set [3], the minimal effective concentration is over 10 µM.

Turning to `CC#CCNC1=CC(=O)c2ccccc2C1=O` [Compound 2, 2-(But-2-yn-1-ylamino)naphthalene-1,4-dione], the fish dead result in data set [1] (5 μM, 24 hr) is “⅚”. The “concentration lethal/toxic at 24 hr” value in data set [1] (24 hr) was at least 10 µM. Also, the concentration giving a half-maximal response (EC50) in data set [2] (setting [4]) worked out at 1220 nM. Further, the minimal effective concentration in data set [3] is over 20 µM. Also, the inhibition in vivo at 40 µM in data set [3] (40 μM, read-out: reduction of PTZ-induced locomotor activity) was determined as 89%.

Regarding `CCCC#CCNC1=CC(=O)c2ccccc2C1=O` [Compound 4, 2-(Hex-2-yn-1-ylamino)naphthalene-1,4-dione], in data set [1] (10 μM, 24 hr), the fish dead entry is on record as “⅙”. Further, the EC50 in data set [2] (setting [4]) is 989 nM. In data set [3], the minimal effective concentration is over 20 µM. The inhibition in vivo at 10 µM in data set [3] (setting [5]) was about 80%. Further, the inhibition in vivo at 20 µM in data set [3] (20 μM, read-out: reduction of PTZ-induced locomotor activity) was about 80%.

Take `CCCCC#CCNC1=CC(=O)c2ccccc2C1=O` [Compound 5, 2-(Hept-2-yn-1-ylamino)naphthalene-1,4-dione]: the “concentration lethal/toxic at 24 hr” value in data set [1] (24 hr) amounted to 20 µM. Further, in data set [2] (setting [4]), the concentration for a half-maximal effect (EC50) worked out at 1570 nM. The minimal effective concentration in data set [3] was at most 5 µM. Besides, the inhibition in vivo at 5 µM in data set [3] (5 μM, read-out: reduction of PTZ-induced locomotor activity) turned out to be 84%. Besides, in data set [3] (setting [5]), the inhibition in vivo at 10 µM came out at 77%.

For the compound `CN(C)CC#CCNC1=CC(=O)c2ccccc2C1=O` [Compound 7, 2-((4-(Dimethylamino)but-2-yn-1-yl)amino)naphthalene-1,4-dione], the overt toxicity observation result in data set [1] is on record as “lethal at most concentrations”. Moreover, the “HT22 protection” value in data set [2] (HT22 cells) is given as “poor protection”.

For the compound `O=C1C=C(NCC#Cc2ccccc2)C(=O)c2ccccc21` [Compound 8, 2-((3-Phenylprop-2-yn-1-yl)amino)naphthalene-1,4-dione], the overt toxicity observation result in data set [1] is listed as “not lethal at any concentration”. Also, the EC50 in data set [2] (HT-22, HT22 cells, 24 hr, 95% CI in parentheses) came out at 162 nM.

Turning to `CS(=O)(=O)Nc1cccc(C#CCNC2=CC(=O)c3ccccc3C2=O)c1` [Compound 14, N-(3-(3-((1,4-dioxo-1,4-dihydronaphthalen-2-yl)amino)prop-1-yn-1-yl)phenyl)methanesulfonamide], the “concentration lethal to all fish” value in data set [1] (after 5 hr) is 10 µM. Also, the concentration giving a half-maximal response (EC50) in data set [2] (setting [4]) was 1940 nM; in data set [2] (HT-22, HT22 cells), about 2000 nM.

Consider `CC#CCCNC1=CC(=O)c2ccccc2C1=O` [Compound 15, 2-(Pent-3-yn-1-ylamino)naphthalene-1,4-dione], for which the overt toxicity observation entry in data set [1] is reported as “acutely lethal to most fish at the lowest concentration after 1 hr”. The concentration for a half-maximal effect (EC50) in data set [2] (setting [4]) is 2910 nM; in data set [2] (HT-22, HT22 cells) it was over 2000 nM.

As to `CCC#CCCNC1=CC(=O)c2ccccc2C1=O` [Compound 16, 2-(Hex-3-yn-1-ylamino)naphthalene-1,4-dione], the overt toxicity observation result in data set [1] is “acutely lethal to most fish at the lowest concentration after 1 hr”. For the same compound, the EC50 is 5600 nM in data set [2] (setting [4]) and over 2000 nM in data set [2] (HT-22, HT22 cells).
